Data reported in ChEMBL document CHEMBL3044761, “Lethal Activity of a Trehalase Inhibitor, Validoxylamine A, against Mamestra brassicae and Spodoptera litura” (J Pestic Sci, 1994).

Legend:
Trehalase = target: T1, Trehalase (Rattus norvegicus, UniProt O70282); assay: Inhibition of Rattus norvegicus (rat) trehalase; settings: read-out: I50
T1 sequence (O70282 whole entry): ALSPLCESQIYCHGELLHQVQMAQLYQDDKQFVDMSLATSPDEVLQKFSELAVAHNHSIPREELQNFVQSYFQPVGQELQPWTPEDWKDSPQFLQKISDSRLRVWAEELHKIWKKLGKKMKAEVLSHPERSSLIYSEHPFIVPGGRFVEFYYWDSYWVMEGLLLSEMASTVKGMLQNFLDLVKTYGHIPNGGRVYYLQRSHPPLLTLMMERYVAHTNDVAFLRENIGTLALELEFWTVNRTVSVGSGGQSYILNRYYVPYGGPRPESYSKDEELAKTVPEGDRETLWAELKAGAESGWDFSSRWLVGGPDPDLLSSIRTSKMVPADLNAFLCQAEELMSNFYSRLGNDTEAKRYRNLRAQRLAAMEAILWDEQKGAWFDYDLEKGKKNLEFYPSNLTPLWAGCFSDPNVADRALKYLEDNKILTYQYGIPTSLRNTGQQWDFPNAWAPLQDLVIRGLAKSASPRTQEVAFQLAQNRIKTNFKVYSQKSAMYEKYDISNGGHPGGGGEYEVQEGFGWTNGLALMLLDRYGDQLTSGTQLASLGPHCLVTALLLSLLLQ

Spodoptera litura [1] = assay: Insecticidal activity against last-instar Spodoptera litura larvae assessed as mortality; type: functional
Mamestra brassicae [2] = assay: Insecticidal activity against last-instar Mamestra brassicae larvae assessed as mortality; type: functional
Spodoptera litura [3] = assay: Insecticidal activity against last-instar Spodoptera litura larvae assessed as larval pupal intermediate injected at 50 ug/larvae (reference value: […]); type: functional
Spodoptera litura [4] = assay: Insecticidal activity against last-instar Spodoptera litura larvae assessed as larval pupal intermediate injected at 10 ug/larvae (reference value: […]); type: functional
Spodoptera litura [5] = assay: Insecticidal activity against last-instar Spodoptera litura larvae assessed as larval pupal intermediate injected at 0.4 ug/larvae (reference value: […]); type: functional
Spodoptera litura [6] = assay: Insecticidal activity against last-instar Spodoptera litura larvae assessed as partial pupation at 50 ug/larvae topical application (reference value: […]); type: functional
Spodoptera litura [7] = assay: Insecticidal activity against last-instar Spodoptera litura larvae assessed as partial pupation injected at 50 ug/larvae (reference value: 100%); type: functional
Spodoptera litura [8] = assay: Insecticidal activity against last-instar Spodoptera litura larvae assessed as partial pupation injected at 10 ug/larvae (reference value: […]); type: functional
Spodoptera litura [9] = assay: Insecticidal activity against last-instar Spodoptera litura larvae assessed as partial pupation injected at 2 ug/larvae (reference value: 100%); type: functional
Spodoptera litura [10] = assay: Insecticidal activity against last-instar Spodoptera litura larvae assessed as wing pad separation at 50 ug/larvae topical application (reference value: 100%); type: functional
Spodoptera litura [11] = assay: Insecticidal activity against last-instar Spodoptera litura larvae assessed as wing pad separation injected at 10 ug/larvae (reference value: 100%); type: functional
Spodoptera litura [12] = assay: Insecticidal activity against last-instar Spodoptera litura larvae assessed as wing pad separation injected at 2 ug/larvae (reference value: 100%); type: functional
Spodoptera litura [13] = assay: Insecticidal activity against last-instar Spodoptera litura larvae assessed as wing pad separation injected at 0.4 ug/larvae (reference value: 100%); type: functional
Spodoptera litura [14] = assay: Insecticidal activity against last-instar Spodoptera litura larvae assessed as normal pupae at 50 ug/larvae topical application (reference value: 100%); type: functional
Trehalase (Bombyx mori) = target: T2, Trehalase (Bombyx mori) (UniProt P32358); assay: Inhibition of Bombyx mori trehalase activity in total ovaries at 10 ug/pupa; settings: Female gonad
T2 sequence (whole entry): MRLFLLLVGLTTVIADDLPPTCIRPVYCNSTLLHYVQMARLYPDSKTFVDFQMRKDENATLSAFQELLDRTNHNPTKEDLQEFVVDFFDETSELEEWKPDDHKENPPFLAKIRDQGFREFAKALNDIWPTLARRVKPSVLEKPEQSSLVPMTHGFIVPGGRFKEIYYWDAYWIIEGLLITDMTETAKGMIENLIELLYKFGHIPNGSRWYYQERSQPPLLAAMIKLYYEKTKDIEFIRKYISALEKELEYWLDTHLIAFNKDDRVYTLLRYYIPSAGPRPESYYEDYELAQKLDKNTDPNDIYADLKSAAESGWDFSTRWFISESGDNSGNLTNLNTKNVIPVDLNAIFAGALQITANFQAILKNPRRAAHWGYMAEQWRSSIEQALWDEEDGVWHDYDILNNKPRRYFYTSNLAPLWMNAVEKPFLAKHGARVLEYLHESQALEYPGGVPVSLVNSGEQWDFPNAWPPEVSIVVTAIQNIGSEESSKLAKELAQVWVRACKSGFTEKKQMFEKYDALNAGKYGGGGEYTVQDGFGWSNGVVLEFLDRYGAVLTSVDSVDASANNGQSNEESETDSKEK

[15] = Inhibition of Rhizoctonia solani beta-glucosidase; settings: read-out: I50
Mamestra brassicae [16] = assay: Insecticidal activity against last-instar Mamestra brassicae larvae assessed as partial pupation injected at 10 ug/larvae (reference value: 10%); type: functional
Mamestra brassicae [17] = assay: Insecticidal activity against last-instar Mamestra brassicae larvae assessed as partial pupation injected at 5 ug/larvae (reference value: 10%); type: functional
Mamestra brassicae [18] = assay: Insecticidal activity against last-instar Mamestra brassicae larvae assessed as partial pupation injected at 1 ug/larvae (reference value: 10%); type: functional
Mamestra brassicae [19] = assay: Insecticidal activity against last-instar Mamestra brassicae larvae assessed as wing pad separation at 50 ug/larvae oral administration (reference value: 0%); type: functional
Mamestra brassicae [20] = assay: Insecticidal activity against last-instar Mamestra brassicae larvae assessed as wing pad separation at 50 ug/larvae topical application (reference value: 0%); type: functional
Mamestra brassicae [21] = assay: Insecticidal activity against last-instar Mamestra brassicae larvae assessed as wing pad separation injected at 50 ug/larvae (reference value: 0%); type: functional
Mamestra brassicae [22] = assay: Insecticidal activity against last-instar Mamestra brassicae larvae assessed as wing pad separation injected at 10 ug/larvae (reference value: 0%); type: functional
Mamestra brassicae [23] = assay: Insecticidal activity against last-instar Mamestra brassicae larvae assessed as wing pad separation injected at 5 ug/larvae (reference value: 0%); type: functional
Mamestra brassicae [24] = assay: Insecticidal activity against last-instar Mamestra brassicae larvae assessed as normal pupae injected at 50 ug/larvae (reference value: 90%); type: functional
Mamestra brassicae [25] = assay: Insecticidal activity against last-instar Mamestra brassicae larvae assessed as normal pupae injected at 10 ug/larvae (reference value: 90%); type: functional
Mamestra brassicae [26] = assay: Insecticidal activity against last-instar Mamestra brassicae larvae assessed as normal pupae injected at 5 ug/larvae (reference value: 90%); type: functional
Mamestra brassicae [27] = assay: Insecticidal activity against last-instar Mamestra brassicae larvae assessed as normal pupae injected at 1 ug/larvae (reference value: 90%); type: functional
Spodoptera litura [28] = assay: Insecticidal activity against last-instar Spodoptera litura larvae assessed as normal pupae injected at 10 ug/larvae (reference value: 100%); type: functional
Spodoptera litura [29] = assay: Insecticidal activity against last-instar Spodoptera litura larvae assessed as normal pupae injected at 2 ug/larvae (reference value: 100%); type: functional
Mamestra brassicae [30] = assay: Insecticidal activity against last-instar Mamestra brassicae larvae assessed as larval-pupal intermediate at 50 ug/larvae oral administration (reference value: 0%); type: functional
Mamestra brassicae [31] = assay: Insecticidal activity against last-instar Mamestra brassicae larvae assessed as larval-pupal intermediate at 50 ug/larvae topical application (reference value: 0%); type: functional

## OCC1=C[C@H](N[C@H]2C[C@H](CO)[C@@H](O)[C@H](O)[C@H]2O)[C@H](O)[C@@H](O)[C@@H]1O [VALIDOXYLAMINE A]
Trehalase
  IC50: 0.0049 µM
Spodoptera litura [1]
  LD50: 2.42 µg
Mamestra brassicae [2]
  LD50: <1 µg
Spodoptera litura [3]
  Activity: 58%
Spodoptera litura [4]
  Activity: 25%
Spodoptera litura [5]
  Activity: 0%
Spodoptera litura [6]
  Activity: 5%
Spodoptera litura [7]
  Activity: 30%
Spodoptera litura [8]
  Activity: 40%
Spodoptera litura [9]
  Activity: 20%
Spodoptera litura [10]
  Activity: 5%
Spodoptera litura [11]
  Activity: 15%
Spodoptera litura [12]
  Activity: 5%
Spodoptera litura [13]
  Activity: 5%
Spodoptera litura [14]
  Activity: 85%
Trehalase (Bombyx mori)
  inhibition: 78%
[15]
  IC50: > 1000 µM
Mamestra brassicae [16]
  Activity: 13%
Mamestra brassicae [17]
  Activity: 27%
Mamestra brassicae [18]
  Activity: 27%
Mamestra brassicae [19]
  Activity: 10%
Mamestra brassicae [20]
  Activity: 0%
Mamestra brassicae [21]
  Activity: 0%
Mamestra brassicae [22]
  Activity: 7%
Mamestra brassicae [23]
  Activity: 7%
Mamestra brassicae [24]
  Activity: 0%
Mamestra brassicae [25]
  Activity: 0%
Mamestra brassicae [26]
  Activity: 7%
Mamestra brassicae [27]
  Activity: 27%
Spodoptera litura [28]
  Activity: 20%
Spodoptera litura [29]
  Activity: 60%
Mamestra brassicae [30]
  Activity: 0%
Mamestra brassicae [31]
  Activity: 0%
